Measured values reported in patent US7732449B2, “Inhibitors of cathepsin S” (IRM LLC, priority 2003, dated 2010).
Read-outs that look alike come from different tables or passages of the source.

Tests used:
Assay type in all cases: biochemical
Cathepsin B = Cathepsin B (Homo sapiens, UniProt P07858); test: Cathepsin B inhibition, fluorogenic peptide substrate kinetic assay (selectivity); settings: ratio of cathepsin B inhibition constant to cathepsin S inhibition constant;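 further: value is the cathepsin B inhibition constant divided by the cathepsin S one, each from kinetic fluorescence readings (ex 380 nm, em 450 nm) of a 10 µM coumarin peptide substrate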
Cathepsin L = Cathepsin L (Homo sapiens, UniProt P07711); test: Cathepsin L inhibition, fluorogenic peptide substrate kinetic assay (selectivity); settings: ratio of cathepsin L inhibition constant to cathepsin S inhibition constant
Cathepsin L, sequence (P07711 114-333, species assumed): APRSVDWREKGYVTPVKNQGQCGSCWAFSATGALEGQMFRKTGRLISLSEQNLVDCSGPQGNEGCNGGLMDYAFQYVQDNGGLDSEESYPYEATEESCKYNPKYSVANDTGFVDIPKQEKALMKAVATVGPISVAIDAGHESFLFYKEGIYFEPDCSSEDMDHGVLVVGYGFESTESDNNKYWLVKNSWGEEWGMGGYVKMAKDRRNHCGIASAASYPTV

Cathepsin S = Cathepsin S (Homo sapiens, UniProt P25774); test: Cathepsin S inhibition, fluorogenic peptide substrate kinetic assay;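 further: cleavage rate of a coumarin-labelled peptide substrate (50 µM) read as fluorescence increase at Ex 380 nm and Em 450 nm, relative to inhibitor-free control reactions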
Cathepsin S, sequence (P25774 115-331, species assumed): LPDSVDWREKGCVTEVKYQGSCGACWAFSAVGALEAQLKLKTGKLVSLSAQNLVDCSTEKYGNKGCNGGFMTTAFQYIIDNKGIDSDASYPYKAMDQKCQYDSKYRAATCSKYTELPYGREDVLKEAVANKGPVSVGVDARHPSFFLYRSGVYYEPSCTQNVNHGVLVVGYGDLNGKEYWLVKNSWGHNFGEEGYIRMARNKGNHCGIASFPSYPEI

Cathepsin K = target: T1, Cathepsin K (Homo sapiens, UniProt P43235); test: Cathepsin K inhibition, fluorogenic peptide substrate kinetic assay (selectivity); settings: ratio of cathepsin K inhibition constant to cathepsin S inhibition constant
T1 sequence (P43235 115-329): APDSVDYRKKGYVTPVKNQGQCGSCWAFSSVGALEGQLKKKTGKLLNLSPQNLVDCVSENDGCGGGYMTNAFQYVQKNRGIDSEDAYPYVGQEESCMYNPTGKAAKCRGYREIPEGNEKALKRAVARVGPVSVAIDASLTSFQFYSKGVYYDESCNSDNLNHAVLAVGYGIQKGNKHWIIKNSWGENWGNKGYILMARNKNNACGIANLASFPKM

[1] = Cathepsin S inhibition constant, pH5.5, 20 minutes preincubation at room temperature, read-out: Ki Cat. S

Row | Selectivity for Cat. S over Cat. B (Cathepsin B) | Selectivity for Cat. S over Cat. L (Cathepsin L) | Ki (Cathepsin S; [1]) | Ki (Cathepsin S) | Selectivity for Cat. S over Cat. K (Cathepsin K) | SMILES
1 | + (+, >10) | + (+, >10) | 1000 to 10000 nM | – | – | CC(C)[C@@H](CN1CC(C)(C)c2cc(F)ccc21)NC(=O)OC(C(=O)N1CCOCC1)c1ccccc1 (mixture of isomers) [Example 109, [1-(S)-(5-Fluoro-3,3-dimethyl-2,3-dihydro-indol-1-ylmethyl)-2-methyl-propyl]-carbamic acid 2-morpholin-4-yl-2-oxo-1-(R,S)-phenyl-ethyl ester]
2 | + (+, >10) | – | 1000 to 10000 nM | – | – | O=C(NCCN1CCc2cc(F)ccc21)[C@H](CC1CCCCC1)OC(=O)N1CCOCC1 [Example 1, Morpholine-4-carboxylic acid (S)-2-cyclohexyl-1-[2-(5-fluoro-2,3-dihydro-indol-1-yl)-ethylcarbamoyl]-ethyl ester]
3 | – | – | < 100 nM | – | – | C[C@@H](CNc1ccc(OC(F)(F)F)cc1)NC(=O)[C@H](CSCc1ccccc1)NC(=O)N1CCOCC1 [Example 17, Morpholine-4-carboxylic acid {2-benzylsulfanyl-1-(R)-[1-(S)-methyl-2-(4-trifluoromethoxy-phenylamino)-ethylcarbamoyl]-ethyl}-amide]
4 | ++ (++, >100) | – | – | < 100 nM | + (+, >10) | O=C(N[C@@H](CCc1ccccc1)CNc1ccc(OC(F)(F)F)cc1)[C@@H](CC(=O)N1CCOCC1)CC1CCCCC1 [Example 23, 2-(R)-Cyclohexylmethyl-4-morpholin-4-yl-4-oxo-N-{3-phenyl-1-(S)-[(4-trifluoromethoxy-phenylamino)-methyl]-propyl}-butyramide]
5 | – | – | – | < 100 nM | – | CC(C)[C@@H](CNc1ccc(OC(F)(F)F)cc1)NC(=O)[C@@H](CC(=O)N1CCOCC1)CC1CCCCC1 [Example 24, 2-(R)-Cyclohexylmethyl-N-{2-methyl-1-(S)-[(4-trifluoromethoxy-phenylamino)-methyl]-propyl}-4-morpholin-4-yl-4-oxo-butyramide]
6 | ++ (++, >100) | ++ (++, >100) | – | 100 to 1000 nM | – | C[C@@H](CNc1ccc(OC(F)(F)F)cc1)NC(=O)[C@@H](CC(=O)N1CCOCC1)CC(C)(C)C [Example 26, 4,4-Dimethyl-2-(R)-(2-morpholin-4-yl-2-oxo-ethyl)-pentanoic acid [1-(S)-methyl-2-(4-trifluoromethoxy-phenylamino)-ethyl]-amide]
7 | – | – | – | < 100 nM | – | CS(=O)(=O)CC[C@@H](CNc1ccc(OC(F)(F)F)cc1)NC(=O)[C@@H](CC(=O)N1CCOCC1)CC1CCCCC1 [Example 28, 2-(R)-Cyclohexylmethyl-N-{3-methanesulfonyl-1-(S)-[(4-trifluoromethoxy-phenylamino)-methyl]-propyl}-4-morpholin-4-yl-4-oxo-butyramide]
8 | – | – | – | < 100 nM | – | CS(=O)(=O)CC[C@H](CNc1ccc(OC(F)(F)F)cc1)NC(=O)[C@@H](CC(=O)N1CCOCC1)CC1CCCCC1 [Example 29, 2-(R)-Cyclohexylmethyl-N-{3-methanesulfonyl-1-(R)-[(4-trifluoromethoxy-phenylamino)-methyl]-propyl}-4-morpholin-4-yl-4-oxo-butyramide]
9 | – | – | – | < 100 nM | – | CC(C)[C@@H](CNc1ccc(OC(F)(F)F)cc1)NC(=O)[C@H](CCCc1ccccc1)CC(=O)N1CCOCC1 [Example 30, 2-(R)-(2-Morpholin-4-yl-2-oxo-ethyl)-5-phenyl-pentanoic acid {2-methyl-1-(S)-[(4-trifluoromethoxy-phenylamino)-methyl]-propyl}-amide]
10 | – | – | – | < 100 nM | – | CC(C)[C@@H](CNc1ccc(OC(F)(F)F)cc1)NC(=O)[C@@H](CC(=O)N1CCOCC1)CC1CCCC1 [Example 31, 2-(R)-Cyclopentylmethyl-N-{2-methyl-1-(S)-[(4-trifluoromethoxy-phenylamino)-methyl]-propyl}-4-morpholin-4-yl-4-oxo-butyramide]
11 | +++ (+++, >1000) | + (+, >10) | – | < 100 nM | – | CC(C)[C@@H](CNc1ccc(OC(F)(F)F)cc1)NC(=O)[C@H](CCc1ccccc1)CC(=O)N1CCOCC1 [Example 32, N-{2-Methyl-1-(S)-[(4-trifluoromethoxy-phenylamino)-methyl]-propyl}-4-morpholin-4-yl-4-oxo-2-(R)-phenethyl-butyramide]
12 | – | – | – | < 100 nM | – | CC(C)[C@@H](CNc1ccc(OC(F)(F)F)cc1)NC(=O)[C@H](CCC1CCCC1)CC(=O)N1CCOCC1 [Example 33, 2-(R)-(2-Cyclopentyl-ethyl)-N-{2-methyl-1-(S)-[(4-trifluoromethoxy-phenylamino)-methyl]-propyl}-4-morpholin-4-yl-4-oxo-butyramide]
13 | +++ (+++, >1000) | – | – | < 100 nM | – | CC[C@@H](CNc1ccc(OC(F)(F)F)cc1)NC(=O)[C@H](CCc1ccccc1)CC(=O)N1CCOCC1 [Example 38, 4-Morpholin-4-yl-4-oxo-2-(R)-phenethyl-N-{1-(S)-[(4-trifluoromethoxy-phenylamino)-methyl]-propyl}-butyramide]
14 | – | – | – | < 100 nM | – | O=C(N[C@@H](CCc1ccccc1)CNc1ccc(OC(F)(F)F)cc1)[C@@H](CC(=O)N1CCOCC1)c1ccccc1 [Example 40, 4-Morpholin-4-yl-4-oxo-2-(S)-phenyl-N-{3-phenyl-1-(S)-[(4-trifluoromethoxy-phenylamino)-methyl]-propyl}-butyramide]
15 | – | – | – | 100 to 1000 nM | – | O=C(N[C@H](CNc1ccc(OC(F)(F)F)cc1)c1ccccc1)[C@@H](CC(=O)N1CCOCC1)c1ccccc1 [Example 44, 4-Morpholin-4-yl-4-oxo-2-(S)-phenyl-N-[1-(S)-phenyl-2-(4-trifluoromethoxy-phenylamino)-ethyl]-butyramide]
16 | +++ (+++, >1000) | – | < 100 nM | – | ++ (++, >100) | C[C@@H]1CN(C(=O)C[C@@H](CC2CCCCC2)C(=O)N[C@@H](C)CNc2ccc(OC(F)(F)F)cc2)C[C@H](C)O1 [Example 50, 2-(R)-Cyclohexylmethyl-4-(cis-2,6-dimethyl-morpholin-4-yl)-N-[1-(S)-methyl-2-(4-trifluoromethoxy-phenylamino)-ethyl]-4-oxo-butyramide]
17 | + (+, >10) | – | 1000 to 10000 nM | – | – | C[C@@H](CN1CC(C)(C)c2cc(F)ccc21)NC(=O)[C@@H](CC(=O)N1CCOCC1)c1ccc(C(F)(F)F)cc1 [Example 66, N-[2-(5-Fluoro-3,3-dimethyl-2,3-dihydro-indol-1-yl)-1-(S)-methyl-ethyl]-4-morpholin-4-yl-4-oxo-2-(S)-(4-trifluoromethyl-phenyl)-butyramide]
18 | + (+, >10) | – | < 100 nM | – | + (+, >10) | CS(=O)(=O)CC[C@@H](CNc1ccc(OC(F)(F)F)cc1)NC(=O)[C@H](CC1CCCCC1)NC(=O)N1CCOCC1 [Example 74, Morpholine-4-carboxylic acid (2-cyclohexyl-1-(S)-{3-methanesulfonyl-1-(S)-[(4-trifluoromethoxy-phenylamino)-methyl]-propylcarbamoyl}-ethyl)-amide]
19 | + (+, >10) | – | < 100 nM | – | + (+, >10) | CC[C@@H](CNc1ccc(OC(F)(F)F)cc1)NC(=O)[C@H](CC1CCCCC1)NC(=O)N1CCOCC1 [Example 75, Morpholine-4-carboxylic acid (2-cyclohexyl-1(S)-{1-(S)-[(4-trifluoromethoxy-phenylamino)-methyl]-propylcarbamoyl}-ethyl)-amide]
20 | + (+, >10) | – | 100 to 1000 nM | – | + (+, >10) | CC(C)[C@@H](CNc1cccnc1)NC(=O)[C@H](CC1CCCCC1)NC(=O)N1CCOCC1 [Example 76, Morpholine-4-carboxylic acid {2-cyclohexyl-1-(S)-[2-methyl-1-(S)-(pyridin-3-ylaminomethyl)-propylcarbamoyl]-ethyl}-amide]
21 | + (+, >10) | – | 1000 to 10000 nM | – | + (+, >10) | C[C@@H](CNc1nc2ccccc2s1)NC(=O)[C@H](CC1CCCCC1)NC(=O)N1CCOCC1 [Example 78, Morpholine-4-carboxylic acid {1-(S)-[2-(benzothiazol-2-ylamino)-1-(S)-methyl-ethylcarbamoyl]-2-cyclohexyl-ethyl}-amide]
22 | + (+, >10) | – | 1000 to 10000 nM | – | + (+, >10) | C[C@@H](CNc1nc2ccccc2o1)NC(=O)[C@H](CC1CCCCC1)NC(=O)N1CCOCC1 [Example 79, Morpholine-4-carboxylic acid {1-(S)-[2-(benzooxazol-2-ylamino)-1-(S)-methyl-ethylcarbamoyl]-2-cyclohexyl-ethyl}-amide]
23 | ++ (++, >100) | – | < 100 nM | – | ++ (++, >100) | O=C(N[C@H](CN1CC2(CC2)c2cc(F)ccc21)C1CC1)[C@H](CC1CCCCC1)NC(=O)N1CCOCC1 [Example 82, Morpholine-4-carboxylic acid {2-cyclohexyl-1-(S)-[1-(S)-cyclopropyl-2-(5-fluoro-3,3-spirocyclopropyl-2,3-dihydro-indol-1-yl)-ethylcarbamoyl]-ethyl}-amide]
24 | + (+, >10) | – | 1000 to 10000 nM | – | + (+, >10) | C[C@@H]1CN(C(=O)[C@H](CC2CCCCC2)OC(=O)N[C@@H](C)CN2c3ccc(F)cc3CC2(C)C)C[C@H](C)O1 [Example 93, [2-(5-Fluoro-2,2-dimethyl-2,3-dihydro-indol-1-yl)-1-(S)-methyl-ethyl]-carbamic acid 1-(S)-cyclohexylmethyl-2-(2,6-cis-dimethyl-morpholin-4-yl)-2-oxo-ethyl ester]
